The values that follow are results of earlier work, collected in US20250177439A1, “LOW DOSE PRE-MIX FEED FOR TRACE MINERAL SUPPLEMENTATION” (Chemlock Operating LLC d/b/a Chemlock Nutrition, priority 2023, published 2025).

The conditions of the data set: 105-140 ppm zinc compared to 132-177 pmm of zinc.

On to “Zinc chloride hydroxide monohydrate [zinc hydroxy chloride]”, for which the skin strength entry is given as “enhanced the skin strength”.
